molecular target: T1, LRRK2 WT (Homo sapiens, UniProt Q5S007); experiment: LRRK2 Kinase Activity Assay (LanthaScreen TR-FRET), wild type; format: biochemical; details: recombinant wild type LRRK2, 25 μM ATP, 400 nM LRRKtide, 60 min; class symbols
T1 construct: purchased Life Technologies PR8604B
Method: LRRK2 kinase activity was measured using a LanthaScreen™ Kinase Activity Assay from ThermoFisher Scientific. Recombinant wild type or G2019S-LRRK2 protein (Life Technologies, PR8604B or PV4881, respectively), was incubated with a fluorescein-labeled peptide substrate called LRRKtide that is based upon ezrin/radixin/moesin (ERM) (Life Technologies, PV4901) in the presence of ATP and serially diluted compound. […] Compound-dependent inhibition of the TR-FRET signal was used to generate a concentration-response curve for IC50 determination.
After 60 min incubation at room temperature, the reaction was stopped by addition of 10 μL of 2×stop solution containing a final concentration of 2 nM anti-pERM antibody and 10 mM EDTA.

T1 sequence (Q5S007 whole entry): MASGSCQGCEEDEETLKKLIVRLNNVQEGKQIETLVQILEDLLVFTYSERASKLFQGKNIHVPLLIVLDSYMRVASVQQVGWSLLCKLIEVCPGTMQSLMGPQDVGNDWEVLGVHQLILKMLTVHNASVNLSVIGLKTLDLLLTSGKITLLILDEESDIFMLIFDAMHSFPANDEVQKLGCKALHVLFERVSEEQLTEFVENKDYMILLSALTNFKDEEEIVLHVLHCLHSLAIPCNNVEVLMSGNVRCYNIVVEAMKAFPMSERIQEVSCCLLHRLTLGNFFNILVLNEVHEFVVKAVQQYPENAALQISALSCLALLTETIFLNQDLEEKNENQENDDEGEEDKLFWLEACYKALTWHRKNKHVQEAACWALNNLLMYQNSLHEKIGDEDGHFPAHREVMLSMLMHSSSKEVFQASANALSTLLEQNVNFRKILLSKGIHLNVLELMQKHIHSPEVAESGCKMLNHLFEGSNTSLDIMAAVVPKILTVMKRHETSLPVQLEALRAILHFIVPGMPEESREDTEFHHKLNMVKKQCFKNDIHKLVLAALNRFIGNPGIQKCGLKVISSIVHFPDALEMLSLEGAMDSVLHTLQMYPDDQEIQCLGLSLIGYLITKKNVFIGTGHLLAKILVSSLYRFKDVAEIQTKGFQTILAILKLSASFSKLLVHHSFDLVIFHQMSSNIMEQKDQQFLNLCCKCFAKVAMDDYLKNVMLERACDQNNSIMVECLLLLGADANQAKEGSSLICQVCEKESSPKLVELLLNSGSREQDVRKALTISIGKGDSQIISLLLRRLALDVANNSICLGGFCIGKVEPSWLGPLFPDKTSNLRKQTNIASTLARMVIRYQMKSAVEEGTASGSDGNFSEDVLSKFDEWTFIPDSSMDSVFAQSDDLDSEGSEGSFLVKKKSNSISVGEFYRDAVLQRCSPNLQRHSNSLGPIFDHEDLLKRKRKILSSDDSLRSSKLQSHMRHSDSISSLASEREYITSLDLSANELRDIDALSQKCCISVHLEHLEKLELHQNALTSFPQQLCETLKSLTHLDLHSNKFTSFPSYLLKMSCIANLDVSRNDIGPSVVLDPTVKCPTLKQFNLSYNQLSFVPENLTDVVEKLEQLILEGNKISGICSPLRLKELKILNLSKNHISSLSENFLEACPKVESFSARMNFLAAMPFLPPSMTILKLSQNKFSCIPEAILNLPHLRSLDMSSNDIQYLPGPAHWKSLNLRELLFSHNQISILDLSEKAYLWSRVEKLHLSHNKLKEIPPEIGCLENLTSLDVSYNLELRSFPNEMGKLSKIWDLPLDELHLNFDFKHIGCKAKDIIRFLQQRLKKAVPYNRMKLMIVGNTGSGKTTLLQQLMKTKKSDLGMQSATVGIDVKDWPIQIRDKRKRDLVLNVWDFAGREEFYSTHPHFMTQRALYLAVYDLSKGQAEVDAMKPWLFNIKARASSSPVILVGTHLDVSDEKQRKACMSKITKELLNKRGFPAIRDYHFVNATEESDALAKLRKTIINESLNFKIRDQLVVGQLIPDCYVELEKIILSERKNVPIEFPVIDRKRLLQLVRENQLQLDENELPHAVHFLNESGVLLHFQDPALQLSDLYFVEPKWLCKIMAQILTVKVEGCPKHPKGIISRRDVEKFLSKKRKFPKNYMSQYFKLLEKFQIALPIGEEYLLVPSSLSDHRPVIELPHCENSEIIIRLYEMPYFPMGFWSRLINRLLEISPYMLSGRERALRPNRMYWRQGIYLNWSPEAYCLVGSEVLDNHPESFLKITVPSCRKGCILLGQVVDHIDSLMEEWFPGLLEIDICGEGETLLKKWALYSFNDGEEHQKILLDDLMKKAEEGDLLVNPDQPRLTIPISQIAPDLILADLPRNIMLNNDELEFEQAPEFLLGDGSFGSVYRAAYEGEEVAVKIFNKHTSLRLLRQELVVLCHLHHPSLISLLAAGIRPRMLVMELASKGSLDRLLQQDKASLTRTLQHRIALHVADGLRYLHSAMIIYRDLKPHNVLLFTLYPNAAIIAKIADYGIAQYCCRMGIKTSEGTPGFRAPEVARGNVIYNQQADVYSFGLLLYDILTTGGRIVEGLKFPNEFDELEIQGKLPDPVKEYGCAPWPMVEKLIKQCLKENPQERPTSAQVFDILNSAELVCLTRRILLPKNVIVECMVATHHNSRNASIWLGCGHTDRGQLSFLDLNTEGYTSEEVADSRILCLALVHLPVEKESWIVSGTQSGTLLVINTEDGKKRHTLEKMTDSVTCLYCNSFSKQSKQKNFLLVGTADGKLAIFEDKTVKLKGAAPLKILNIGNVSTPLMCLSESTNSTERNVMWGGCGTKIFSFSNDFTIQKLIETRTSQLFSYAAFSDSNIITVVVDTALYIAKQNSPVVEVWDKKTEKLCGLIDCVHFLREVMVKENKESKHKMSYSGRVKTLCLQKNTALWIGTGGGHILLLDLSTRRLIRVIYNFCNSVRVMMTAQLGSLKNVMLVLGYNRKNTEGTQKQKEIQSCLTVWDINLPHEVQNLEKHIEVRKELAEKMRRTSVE

`Cc1c(C#N)ccc2c1CC[C@@H]2Nc1ccc2[nH]nc(-c3cnn(C(F)F)c3)c2c1` (single isomer, unassigned) [Example 52, enantiomer 2, 1-((3-(1-(Difluoromethyl)-1H-pyrazol-4-yl)-1H-indazol-5-yl)amino)-4-methyl-2,3-dihydro-1H-indene-5-carbonitrile] and `Cc1c(C#N)ccc2c1CC[C@H]2Nc1ccc2[nH]nc(-c3cnoc3)c2c1` (single isomer, unassigned) [Example 118, enantiomer 2, 1-((3-(Isoxazol-4-yl)-1H-indazol-5-yl)amino)-4-methyl-2,3-dihydro-1H-indene-5-carbonitrile] cannot be ordered by IC50: under 100 nM for the first, under 100 nM for the second.

`COc1c(C#N)ccc2c1CCC[C@@H]2Nc1ccc2[nH]nc(-c3cnco3)c2c1` (single isomer, unassigned) [Example 101, enantiomer 2, 1-Methoxy-5-{[3-(1,3-oxazol-5-yl)-1H-indazol-5-yl]amino}-5,6,7,8-tetrahydronaphthalene-2-carbonitrile] and `COc1c(C#N)ccc2c1CC[C@@H]2Nc1ccc2[nH]nc(-c3cnco3)c2c1` (single isomer, unassigned) [Example 113, enantiomer 2, 4-Methoxy-1-((3-(oxazol-5-yl)-1H-indazol-5-yl)amino)-2,3-dihydro-1H-indene-5-carbonitrile] cannot be ordered by IC50: under 100 nM for the first, under 100 nM for the second.

`N#Cc1cnc2c(c1)CC[C@@H]2Oc1ccc2[nH]nc(-c3cnco3)c2c1` (single isomer, unassigned) [Example 103, enantiomer 2, 7-((3-(Oxazol-5-yl)-1H-indazol-5-yl)oxy)-6,7-dihydro-5H-cyclopenta[b]pyridine-3-carbonitrile] and `N#Cc1cnc2c(c1)CCC[C@H]2Nc1ccc2[nH]nc(-c3cnco3)c2c1` (single isomer, unassigned) [Example 120, enantiomer 2, 8-((3-(Oxazol-5-yl)-1H-indazol-5-yl)amino)-5,6,7,8-tetrahydroquinoline-3-carbonitrile] cannot be ordered by IC50: under 100 nM for the first, under 100 nM for the second.

`Cc1nc2c(cc1C#N)CCC[C@@H]2Nc1ccc2[nH]nc(-c3cnco3)c2c1` (single isomer, unassigned) [Example 106, enantiomer 2, 2-Methyl-8-((3-(oxazol-5-yl)-1H-indazol-5-yl)amino)-5,6,7,8-tetrahydroquinoline-3-carbonitrile] and `N#Cc1cc2c(nc1Cl)[C@@H](Nc1ccc3[nH]nc(-c4cnco4)c3c1)CCC2` (single isomer, unassigned) [Example 112, enantiomer 2, 2-Chloro-8-((3-(oxazol-5-yl)-1H-indazol-5-yl)amino)-5,6,7,8-tetrahydroquinoline-3-carbonitrile] cannot be ordered by IC50: under 100 nM for the first, under 100 nM for the second.

`Cc1c(C#N)cnc2c1CC[C@@H]2Nc1ccc2[nH]nc(-c3cnco3)c2c1` (single isomer, unassigned) [Example 108, enantiomer 2, 4-Methyl-7-((3-(oxazol-5-yl)-1H-indazol-5-yl)amino)-6,7-dihydro-5H-cyclopenta[b]pyridine-3-carbonitrile] and `N#Cc1cnc2c(c1C(F)(F)F)CCC[C@@H]2Nc1ccc2[nH]nc(-c3cnco3)c2c1` (single isomer, unassigned) [Example 145, enantiomer 2, 8-((3-(Oxazol-5-yl)-1H-indazol-5-yl)amino)-4-(trifluoromethyl)-5,6,7,8-tetrahydroquinoline-3-carbonitrile] cannot be ordered by IC50: under 100 nM for the first, under 100 nM for the second.

`CCc1cc(-c2n[nH]c3ccc(N[C@H]4CCCc5cc(C#N)ccc54)cc23)ccn1` (single isomer, unassigned) [Example 116, enantiomer 2, 5-((3-(2-Ethylpyridin-4-yl)-1H-indazol-5-yl)amino)-5,6,7,8-tetrahydronaphthalene-2-carbonitrile] and `N#Cc1ccc2c(c1)CCC[C@H]2Nc1ccc2[nH]nc(-c3cnco3)c2c1` (single isomer, unassigned) [Example 119, enantiomer 2, 5-((3-(Oxazol-5-yl)-1H-indazol-5-yl)amino)-5,6,7,8-tetrahydronaphthalene-2-carbonitrile] cannot be ordered by IC50: under 100 nM for the first, under 100 nM for the second.

`CCc1cc(-c2n[nH]c3ccc(O[C@@H]4CCCc5cc(C#N)cnc54)cc23)ccn1` (single isomer, unassigned) [Example 121, enantiomer 2, 8-((3-(2-Ethylpyridin-4-yl)-1H-indazol-5-yl)oxy)-5,6,7,8-tetrahydroquinoline-3-carbonitrile] and `COc1cc(-c2n[nH]c3ccc(O[C@H]4CCCc5cc(C#N)cnc54)cc23)ccn1` (single isomer, unassigned) [Example 123, enantiomer 2, 8-((3-(2-Methoxypyridin-4-yl)-1H-indazol-5-yl)oxy)-5,6,7,8-tetrahydroquinoline-3-carbonitrile] cannot be ordered by IC50: under 100 nM for the first, under 100 nM for the second.

`N#Cc1cc2c(cn1)[C@H](Oc1ccc3[nH]nc(-c4cnco4)c3c1)CCC2` (single isomer, unassigned) [Example 122, enantiomer 2, 8-((3-(Oxazol-5-yl)-1H-indazol-5-yl)oxy)-5,6,7,8-tetrahydroisoquinoline-3-carbonitrile] and `N#Cc1cnc2c(c1)CCC[C@@H]2Oc1ccc2[nH]nc(-c3cnn(C(F)F)c3)c2c1` (single isomer, unassigned) [Example 141, enantiomer 2, 8-((3-(1-(Difluoromethyl)-1H-pyrazol-4-yl)-1H-indazol-5-yl)oxy)-5,6,7,8-tetrahydroquinoline-3-carbonitrile] cannot be ordered by IC50: under 100 nM for the first, under 100 nM for the second.

`Cc1c(C#N)ccc2c1CC[C@@H]2Nc1ccc2[nH]nc(I)c2c1` (single isomer, unassigned) [Example 127, enantiomer 2, 1-((3-Iodo-1H-indazol-5-yl)amino)-4-methyl-2,3-dihydro-1H-indene-5-carbonitrile] and `Cc1n[nH]c2ccc(N[C@H]3CCc4c(C#N)cccc43)cc12` (single isomer, unassigned) [Example 129, enantiomer 2, 1-((3-Methyl-1H-indazol-5-yl)amino)-2,3-dihydro-1H-indene-4-carbonitrile] fall in the same range of IC50: 100 to 1000 nM for the first, 100 to 1000 nM for the second.

`Cc1cc(C#N)cc2c1[C@@H](Nc1ccc3[nH]nc(-c4cnco4)c3c1)CC2` (single isomer, unassigned) [Example 131, enantiomer 2, 7-Methyl-1-((3-(oxazol-5-yl)-1H-indazol-5-yl)amino)-2,3-dihydro-1H-indene-5-carbonitrile] and `N#Cc1cc(F)c2c(c1)CC[C@H]2Nc1ccc2[nH]nc(-c3cnco3)c2c1` (single isomer, unassigned) [Example 132, enantiomer 2, 5-((5-Cyano-7-fluoro-2,3-dihydro-1H-inden-1-yl)amino)-3-(oxazol-5-yl)-1H-indazol-2-ium] cannot be ordered by IC50: under 100 nM for the first, under 100 nM for the second.

`N#Cc1cnc2c(c1)CCC[C@@H]2Nc1ccc2[nH]nc(-c3cncs3)c2c1` (single isomer, unassigned) [Example 142, enantiomer 2, 8-((3-(Thiazol-5-yl)-1H-indazol-5-yl)amino)-5,6,7,8-tetrahydroquinoline-3-carbonitrile] and `N#Cc1ccc2c(c1Cl)CCC[C@@H]2Nc1ccc2[nH]nc(-c3cnco3)c2c1` (single isomer, unassigned) [Example 143, enantiomer 2, 1-Chloro-5-((3-(oxazol-5-yl)-1H-indazol-5-yl)amino)-5,6,7,8-tetrahydronaphthalene-2-carbonitrile] cannot be ordered by IC50: under 100 nM for the first, under 100 nM for the second.

Reference: US20230148214A1, “INDAZOLES AND AZAINDAZOLES AS LRRK2 INHIBITORS” (ESCAPE Bio, Inc., priority 2020, published 2023)
